In patent publication US7358359B2, “Antibacterial agents” (University of Washington, priority 2003, dated 2008) one finds IC50 and MIC data, which are given here for 4 compounds.

≈ marks a conversion by molar mass, not a printed value. Read-outs that look alike come from different tables or passages of the source.

One assay addresses T1, P. aeruginosa LpxC (Pseudomonas aeruginosa, UniProt P47205).
T1 sequence (P47205 1-303): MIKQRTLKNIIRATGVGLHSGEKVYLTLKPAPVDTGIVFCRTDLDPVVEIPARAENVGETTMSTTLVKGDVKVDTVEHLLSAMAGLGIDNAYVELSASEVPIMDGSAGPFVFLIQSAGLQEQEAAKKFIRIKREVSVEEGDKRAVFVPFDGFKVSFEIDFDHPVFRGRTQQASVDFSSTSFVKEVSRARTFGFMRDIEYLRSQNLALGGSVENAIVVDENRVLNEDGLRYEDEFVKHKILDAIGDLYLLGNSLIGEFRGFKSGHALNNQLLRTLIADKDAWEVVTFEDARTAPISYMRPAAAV
The assay is described as follows: P. aeruginosa LpxC Inhibition Assay. Type of assay: biochemical. As to conditions: 2 nM P. aeruginosa LpxC, 90 min, room temperature; read-out: IC50 (nM), Enzyme inhibitory activity. The procedure:
The assay followed the general method of Hyland et al (Journal of Bacteriology 1997 179, 2029-2037: Cloning, expression and purification of UDP-3-O-acyl-GlcNAc deacetylase from Pseudomonas aeruginosa: a metalloamidase of the lipid A biosynthesis pathway) and the radiolabeling procedure is according to Kline et al. supra. Briefly, samples were incubated with 2 nM P. aeruginosa LpxC and 150 nM [3H-Ac]-UDP-3-OR-3-hydroxydecanoyl)-GlcNAc in a total volume of 50 uL for 90 min at room temperature. Reactions were carried out in 96-well polypropylene plates in 50 mM sodium phosphate buffer, pH 7.5, containing 1 mg/mL BSA. Reactions were stopped by the addition of 180 uL of a 3% suspension of activated charcoal powder in 100 mM sodium acetate, pH 7.5. Supernatants were clarified by centrifugation. A portion of the clarified supernatant, containing the enzymatically released [3H]-acetate, was transferred to opaque white 96-well plates containing scintillation fluid. The radioactivity was measured in a Perkin-Elmer/Wallac Trilux Microbeta counter.

Another assay concerns P. aeruginosa 27853. The assay is described as follows: MIC broth microdilution, standard panel: P. aeruginosa 27853. Type of assay: cell-based. The settings on record: Pseudomonas aeruginosa, standard panel of organisms. The protocol:
(§1) Bacterial isolates were cultivated from −70° C. frozen stocks by two consecutive overnight passages at 35° C. in ambient air on 5% blood agar (Remel, Lenexa, Kans.). Clinical isolates tested were from a collection composed of isolates collected during clinical trials and recent clinical isolates obtained from various geographically diverse hospitals in the US. Quality control and primary panel strains were from the American Type Culture Collection (ATCC; Rockville, Md.), with the exception of P. aeruginosa PAO200, a strain with a deletion of the mexABoprM genes that was received from Dr. H. Schweizer. […] Strain Z61 (ATCC 35151) is also hypersusceptible to antibacterials. It is thought that the hypersusceptibility of this strain is the result of increased permeability of its outer membrane (Angus B L et al, Antimicrobial Agents and Chemotherapy 1982 21,299-309: Outer membrane permeability in Pseudomonas aeruginosa: Comparison of a wild-type with an antibacterial-supersusceptible mutant).
(§2) Minimum Inhibitory Concentrations (MICs) were determined by the broth microdilution method in accordance with the National Committee for Clinical Laboratory Standards (NCCLS) guidelines. In brief, organism suspensions were are adjusted to a 0.5 McFarland standard to yield a final inoculum between 3×10^5 and 7×10^5 colony-forming units (CFU)/mL. Drug dilutions and inocula were made in sterile, cation adjusted Mueller-Hinton Broth (Remel). An inoculum volume of 100 μl was added to wells containing 100 μl of broth with 2-fold serial dilutions of drug. All inoculated microdilution trays were incubated in ambient air at 35° C. for 18-24 hours. Following incubation, the lowest concentration of the drug that prevented visible growth was recorded as the MIC. Performance of the assay was monitored by the use of laboratory quality-control strains against tobramycin, that has a defined MIC spectrum, in accordance with NCCLS guidelines.

Another assay deals with E. coli 25922. The assay can be described thus: MIC broth microdilution, standard panel: E. coli 25922. The settings on record: Escherichia coli, standard panel of organisms. Type of assay: cell-based. The procedure: as §1, §2
The subject of assay [1] is P. aeruginosa PAO200 mexAB. The assay can be described thus: MIC broth microdilution, standard panel: P. aeruginosa PAO200 mexAB. As to conditions: Pseudomonas aeruginosa, PAO200MEXAB, read-out: MIC P. aeruginosa PAO200 mexAB. Type of assay: cell-based. The protocol:
as §1, §2
On the technique in general: Dilution methods test growth across graded concentrations, often in twofold steps.

Assay [2] deals with Pseudomonas aeruginosa cystic fibrosis isolate 3236. The assay can be described thus: MIC vs cystic fibrosis isolate of P. aeruginosa 3236 (sensitive to most antibacterials). As to conditions: strain 3236, Sensitive, LpxC inhibitors, MIC key class. Type of assay: cell-based. A digest of the protocol: (§3)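 Organisms revived from frozen stocks were tested by NCCLS broth microdilution against 2-fold drug series in cation-adjusted Mueller-Hinton broth. Plates held 35° C. for 18-24 hours; lowest concentration preventing visible growth recorded as MIC.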

The test system of assay [3] is Pseudomonas aeruginosa cystic fibrosis isolate 2196. The assay can be described thus: MIC vs cystic fibrosis isolate of P. aeruginosa 2196 (resistant to ciprofloxacin). As to conditions: strain 2196, Cipro R, LpxC inhibitors, MIC key class. Type of assay: cell-based. The method, boiled down: as §3
The test system of assay [4] is non-CF clinical isolates of P. aeruginosa. The assay can be described thus: MIC vs non-CF clinical isolates of P. aeruginosa. Type of assay: cell-based. As to conditions: Pseudomonas aeruginosa, MIC key class. The method, boiled down:
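Clinical isolates from trials and US hospitals were tested by broth microdilution in cation-adjusted Mueller-Hinton broth. Lowest concentration without visible growth after overnight (18-24 h) incubation at 35° C. defined the MIC.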

Assay [5] deals with Acinetobacter calcoaceticus. The assay can be described thus: MIC vs non-fermenting organisms: Acinetobacter calcoaceticus. Type of assay: cell-based. As to conditions: Acinet. calc., MIC key class. A digest of the protocol:
as §3

The test system of a further assay is Burkholderia cepacia. The assay is described as follows: MIC vs non-fermenting organisms: Burkholderia cepacia. Type of assay: cell-based. As to conditions: Burkholderia cepacia, B. cepacia; MIC key class; read-out: MIC. The method, boiled down: as §3
The next assay deals with Enterobacter aerogenes. The assay can be described thus: MIC vs enteric organisms: Enterobacter aerogenes. As to conditions: Klebsiella aerogenes; E. aer.; MIC key class. Type of assay: cell-based. A digest of the protocol:
as §3

For a further assay, the system named is Escherichia coli. The assay can be described thus: MIC vs enteric organisms: Escherichia coli clinical isolates. Type of assay: cell-based. The settings on record: Escherichia coli, MIC key class, read-out: MIC. A digest of the protocol:
as §3

The subject of another assay is Klebsiella pneumoniae. The assay can be described thus: MIC vs enteric organisms: Klebsiella pneumoniae. Type of assay: cell-based. As to conditions: K. pneu., MIC key class. A digest of the protocol: as §3
Another assay has as its system Klebsiella oxytoca. The assay can be described thus: MIC vs enteric organisms: Klebsiella oxytoca. The settings on record: K. oxy., MIC key class. Type of assay: cell-based. The method, boiled down: as §3
A further assay has as its system Proteus mirabilis. The assay is described as follows: MIC vs enteric organisms: Proteus mirabilis. Type of assay: cell-based. As to conditions: P. mir., MIC key class. The method, boiled down: as §3

As a reminder, the IC50 is the concentration at which inhibition is half-maximal. Broadly, the MIC is the smallest concentration in the dilution series that meets the test's criterion for growth inhibition. For `C[C@@H](O)[C@H](NC(=O)c1ccc(-c2ccc(Br)cc2)cc1)C(=O)NO` [Example 315, 4′-bromo-N-{(1S,2R)-2-hydroxy-1-[(hydroxyamino)carbonyl]propyl}-1,1′-biphenyl-4-carboxamide], on P. aeruginosa LpxC, the IC50 was less than 100 nM. In addition, the minimum inhibitory concentration (MIC) (against P. aeruginosa 27853; against E. coli 25922; in [1]; in assay [2]; in assay [3]; in assay [4] (P. aer 12307)) was less than 6.25 µg/mL each time. The MIC is less than 6.25 µg/mL in assay [4] (P. aer 27853); less than 6.25 µg/mL in [4] (P. aer psa-6b); less than 6.25 µg/mL in assay [4] (PAO1, P. aer. PAO1); greater than 50 µg/mL in assay [5]; less than 6.25 µg/mL in the assay on Burkholderia cepacia; greater than 50 µg/mL in the assay on Enterobacter aerogenes. Also, the MIC in the assay with Escherichia coli (E. coli 1619) was less than 6.25 µg/mL; with Escherichia coli (E. coli 2788) it was less than 6.25 µg/mL; against Klebsiella pneumoniae, greater than 50 µg/mL; in the assay on Klebsiella oxytoca it was greater than 50 µg/mL; against Proteus mirabilis it was greater than 50 µg/mL.
Turning to `C[C@@H](O)[C@H](NC(=O)c1ccc(C#CC#Cc2ccc(NC(=O)CNc3ccccc3)cc2)cc1)C(=O)NO` [Example 777, N-{(1S,2R)-2-hydroxy-1-[(hydroxyamino)carbonyl]propyl}-4-[4-(4-{[(phenylamino)acetyl]amino}phenyl)buta-1,3-diynyl]benzamide], the concentration for half-maximal inhibition (IC50) on P. aeruginosa LpxC is less than 100 nM. Moreover, the MIC (against P. aeruginosa 27853; against E. coli 25922; in assay [1]; in [2]; in assay [3]; in assay [4] (P. aer 12307)) was less than 6.25 µg/mL each time. For the same compound, the MIC in [4] (P. aer 27853) is less than 6.25 µg/mL; in assay [4] (P. aer psa-6b), 6.25 to 50 µg/mL (≈ 12.2 to 97.9 µM); in [5] it was less than 6.25 µg/mL; in the assay with Burkholderia cepacia it was less than 6.25 µg/mL; with Enterobacter aerogenes, 6.25 to 50 µg/mL (≈ 12.2 to 97.9 µM); in the assay with Escherichia coli (E. coli 1619), less than 6.25 µg/mL. The MIC in the assay on Escherichia coli (E. coli 2788), in the assay with Klebsiella pneumoniae, against Klebsiella oxytoca and in the assay on Proteus mirabilis was less than 6.25 µg/mL each time.
As for `C[C@@H](O)[C@H](NC(=O)c1ccc(C#CC#Cc2ccc(NC(=O)CNc3ccccn3)cc2)cc1)C(=O)NO` [Example 801, N-{(1S,2R)-2-hydroxy-1-[(hydroxyamino)carbonyl]propyl}-4-[4-(4-{[(pyridin-2-ylamino)acetyl]amino}phenyl)buta-1,3-diynyl]benzamide], the half-maximal inhibitory concentration (IC50) at P. aeruginosa LpxC was less than 100 nM. For the same compound, the minimum inhibitory concentration (MIC) (with P. aeruginosa 27853; in the assay on E. coli 25922; in assay [1]; in assay [2]; in assay [3]; in assay [4] (P. aer 27853)) was less than 6.25 µg/mL each time. For the same compound, the MIC in assay [4] (P. aer psa-6b) is less than 6.25 µg/mL; in assay [4] (PAO1, P. aer. PAO1), less than 6.25 µg/mL; in assay [5] it was 6.25 to 50 µg/mL (≈ 12.2 to 97.7 µM); with Burkholderia cepacia, 6.25 to 50 µg/mL (≈ 12.2 to 97.7 µM); in the assay on Enterobacter aerogenes it was 6.25 to 50 µg/mL (≈ 12.2 to 97.7 µM); with Escherichia coli (E. coli 1619), less than 6.25 µg/mL. For the same compound, the minimal inhibitory concentration (MIC) in the assay on Escherichia coli (E. coli 2788), against Klebsiella pneumoniae, with Klebsiella oxytoca and in the assay with Proteus mirabilis was less than 6.25 µg/mL each time.
For `CCc1ccc(-c2ccc(C(=O)N[C@@H](CN)C(=O)NO)cc2)cc1` [Example 280, N-[(1S)-1-(aminomethyl)-2-(hydroxyamino)-2-oxoethyl]-4′-ethyl-1,1-biphenyl-4-carboxamide], the IC50 at P. aeruginosa LpxC was less than 100 nM. The minimal inhibitory concentration (MIC) in the assay with P. aeruginosa 27853 is less than 6.25 µg/mL; with E. coli 25922, less than 6.25 µg/mL; in [1], less than 6.25 µg/mL; in assay [2] it was less than 6.25 µg/mL; in assay [3], 6.25 to 50 µg/mL (≈ 19.1 to 153 µM); in assay [4] (P. aer 12307), less than 6.25 µg/mL. The MIC is less than 6.25 µg/mL in [4] (P. aer 27853); less than 6.25 µg/mL in [4] (P. aer psa-6b); less than 6.25 µg/mL in [4] (PAO1, P. aer. PAO1); greater than 50 µg/mL in assay [5]; 6.25 to 50 µg/mL (≈ 19.1 to 153 µM) in the assay with Burkholderia cepacia; greater than 50 µg/mL in the assay on Enterobacter aerogenes. The minimal inhibitory concentration (MIC) was less than 6.25 µg/mL in the assay with Escherichia coli (E. coli 1619); less than 6.25 µg/mL in the assay with Escherichia coli (E. coli 2788); 6.25 to 50 µg/mL (≈ 19.1 to 153 µM) in the assay with Klebsiella pneumoniae; greater than 50 µg/mL with Klebsiella oxytoca; 6.25 to 50 µg/mL (≈ 19.1 to 153 µM) with Proteus mirabilis.
